Molecular target: T1, HDAC8 (Homo sapiens, UniProt Q9BY41)
T1 construct: purchased BPS Biosciences
T1 sequence (Q9BY41 1-377): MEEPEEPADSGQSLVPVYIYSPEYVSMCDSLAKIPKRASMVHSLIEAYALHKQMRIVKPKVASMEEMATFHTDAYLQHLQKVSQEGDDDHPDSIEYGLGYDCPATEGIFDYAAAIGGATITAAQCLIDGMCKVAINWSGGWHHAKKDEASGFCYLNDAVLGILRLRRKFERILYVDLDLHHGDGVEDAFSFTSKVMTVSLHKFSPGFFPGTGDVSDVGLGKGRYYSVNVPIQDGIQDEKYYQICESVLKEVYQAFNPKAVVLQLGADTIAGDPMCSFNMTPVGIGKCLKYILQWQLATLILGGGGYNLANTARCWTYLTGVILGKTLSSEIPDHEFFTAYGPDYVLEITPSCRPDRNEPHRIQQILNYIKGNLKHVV
Experiment: HDAC enzyme assay, in vitro biochemical
Settings: maximum concentration tested of 20 μM
Method: In vitro biochemical assays were performed as described previously. Specifically, compounds were dissolved and diluted in assay buffer (50 mM HEPES, pH 7.4, 100 mM KCl, 0.001% Tween-20, 0.05% BSA, and 20 μM Tris (2-carboxyethyl) phosphine) to 6-fold the final concentration. […] The amount of substrate (acetyl-lysine tripeptide) used for each enzyme was equal to the Michaelis constant (Km), as determined by a titration curve. Substrate was diluted in assay buffer to 6-fold of the final concentration with 0.3 μM sequencing grade trypsin (Sigma-Aldrich). The substrate/trypsin mix was added to the enzyme/compound mix and the plate was shaken for 5 seconds and then placed into a SpectraMax M5 microtiter (Molecular Devices) plate reader. The enzymatic reaction was monitored over 30 minutes for release of […] after deacetylation of the lysine side chain in the peptide substrate, and the linear rate of the reaction was calculated.
biochemical assay for HDAC4, HDAC5, HDAC6, HDAC7, HDAC8, HDAC9 inhibition by ACY-1035.
(1 picture or pasted object on this page, not shown here)

## Nc1ccc(-c2cccs2)cc1NC(=O)c1ccc2c(c1)cc(C1CC1)n2CCN1CCOCC1 [ACY-1035]
  inhibition of HDAC8: did not inhibit

From PMC5218480 (PLoS ONE, 2017)
